In US20030186967A1, “Acylresorcinol derivatives are selective vitronectin receptor inhibitors” (American Home Products Corporation, priority 1998, published 2003):
Structures can show the parent of a compound that is named as a salt. Where two headings read alike, the source gives them in different places. Ends that are not written are not given here.

Legend:
[1] = target: T1, Vitronectin receptor αVβ3 (Homo sapiens, UniProt P05106+P06756); assay: Vitronectin Receptor αVβ3 Binding Assay; details: for IC50: read-out: VnR (IC50μM)
T1 construct: expressed in transfected cells; host or cells: 512P5 cells (plasma membrane preparation)
T1 sequence (P06756 31-889 limits assumed): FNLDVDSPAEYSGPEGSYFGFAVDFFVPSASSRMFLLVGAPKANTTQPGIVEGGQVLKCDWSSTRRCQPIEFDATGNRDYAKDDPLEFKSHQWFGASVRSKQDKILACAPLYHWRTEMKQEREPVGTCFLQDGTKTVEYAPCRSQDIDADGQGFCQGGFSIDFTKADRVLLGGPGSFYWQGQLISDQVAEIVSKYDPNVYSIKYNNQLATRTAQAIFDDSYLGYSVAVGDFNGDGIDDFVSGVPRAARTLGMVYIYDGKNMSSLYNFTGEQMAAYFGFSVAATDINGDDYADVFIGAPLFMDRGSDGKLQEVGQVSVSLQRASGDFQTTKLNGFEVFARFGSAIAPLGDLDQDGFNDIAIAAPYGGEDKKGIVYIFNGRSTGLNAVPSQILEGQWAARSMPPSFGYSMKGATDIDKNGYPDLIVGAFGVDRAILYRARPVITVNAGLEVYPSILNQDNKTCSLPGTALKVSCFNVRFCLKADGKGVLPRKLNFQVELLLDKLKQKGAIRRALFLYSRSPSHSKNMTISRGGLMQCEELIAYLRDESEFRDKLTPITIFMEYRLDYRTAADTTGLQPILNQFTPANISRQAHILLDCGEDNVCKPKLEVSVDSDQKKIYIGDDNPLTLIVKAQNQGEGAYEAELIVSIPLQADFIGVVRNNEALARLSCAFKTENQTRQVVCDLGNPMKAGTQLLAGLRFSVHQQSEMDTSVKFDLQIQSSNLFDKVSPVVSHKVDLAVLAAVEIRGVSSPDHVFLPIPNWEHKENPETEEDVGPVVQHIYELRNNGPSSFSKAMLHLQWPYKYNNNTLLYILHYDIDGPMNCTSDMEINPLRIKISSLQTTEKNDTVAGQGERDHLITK
T1 sequence (P06756 891-1048 partner limits assumed): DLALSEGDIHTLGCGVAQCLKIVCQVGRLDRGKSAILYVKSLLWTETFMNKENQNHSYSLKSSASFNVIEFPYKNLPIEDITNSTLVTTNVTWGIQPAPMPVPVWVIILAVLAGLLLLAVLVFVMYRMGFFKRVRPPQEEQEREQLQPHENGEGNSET
T1 sequence (P05106 27-788): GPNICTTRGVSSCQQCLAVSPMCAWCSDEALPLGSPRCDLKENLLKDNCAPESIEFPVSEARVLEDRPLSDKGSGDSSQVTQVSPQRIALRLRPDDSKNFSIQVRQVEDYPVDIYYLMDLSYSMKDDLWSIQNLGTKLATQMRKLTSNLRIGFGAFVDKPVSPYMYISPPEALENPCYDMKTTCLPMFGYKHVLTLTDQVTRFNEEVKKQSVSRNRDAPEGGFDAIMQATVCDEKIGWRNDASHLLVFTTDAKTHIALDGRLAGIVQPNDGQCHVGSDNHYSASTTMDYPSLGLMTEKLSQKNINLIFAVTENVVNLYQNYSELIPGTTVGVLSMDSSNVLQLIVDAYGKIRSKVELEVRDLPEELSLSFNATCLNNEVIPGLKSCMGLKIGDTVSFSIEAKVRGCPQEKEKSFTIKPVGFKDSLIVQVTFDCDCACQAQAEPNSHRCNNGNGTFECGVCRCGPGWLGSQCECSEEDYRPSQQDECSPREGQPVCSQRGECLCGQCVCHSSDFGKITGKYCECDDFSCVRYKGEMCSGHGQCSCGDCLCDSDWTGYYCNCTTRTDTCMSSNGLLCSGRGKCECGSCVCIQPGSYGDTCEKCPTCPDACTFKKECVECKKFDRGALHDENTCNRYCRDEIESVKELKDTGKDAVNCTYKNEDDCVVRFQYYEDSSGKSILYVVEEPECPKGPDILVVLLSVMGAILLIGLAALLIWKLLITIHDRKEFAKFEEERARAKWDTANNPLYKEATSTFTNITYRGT

[2] = tested on: thyro-parathyroidectomized (TPTX) rats; assay: PTH-induced hypercalcemia of thyroparathyroidectomized male rats; type: in vivo, rat; details: 100 mg/kg; for inhibition in vivo at 100 mg/kg: Rattus norvegicus, sc
Procedure: Effects of test compounds on PTH-induced hypercalcemia of thyroparathyroidectomized male rats
Male thyro-parathyroidectomized (TPTX) rats (Charles River) were randomly assigned to groups of 7 rats/group. Following a baseline serum calcium determination an Alzet 1003D minipump (Alza Corporation, Palo Alto, Calif.) loaded with 0.3 mg/ml PTH (Bachem, Philadelphia, Pa.) was implanted subcutaneously in each rat. For evaluation of prophylactic effects of a test drug, another minipump with appropriate concentration of the test drug solution was implanted subcutaneously at a site away from PTH minipump. Alternatively, test drugs were administered by oral gavage as a solution or uniform suspension in an appropriate medium depending on the physical properties of the test compound. A group of 7 unimplanted TPTX rats was set aside as a normal control group. Twenty hours after minipump implantation blood was collected from each rat to confirm the presence of hypercalcemia (judged by elevation of serum calcium levels, 2 SD>normal non-implanted level). At various intervals between 0.5 and 24 hours after dosing (usually one to three time points), blood was collected from each rat and the serum evaluated for total calcium. Serum calcium levels were measured using the Nova 7+7 calcium auto analyzer spectrophotometrically using the Sigma test kit (#587A). Test results were determined by the difference in serum calcium between vehicle and treatment group following PTH administration, using a one-way analysis of variance with Dunnett's test or other multiple comparison methods.

osteoclasts = assay: Osteoclast Pitting Assay; type: cell-based, rat
Procedure: The assay is conducted as described in Murrills and Dempster (1990). Briefly, 4×4×0.2 mm slices of devitalized bovine cortical bone are numbered, placed in the wells of 96-well culture plates and wetted with 100 ul of Medium 199 containing Hanks salts, 10 mM HEPES, pH 7.0 (Medium 199/Hanks). Bone cell suspensions containing osteoclasts are prepared by mincing the long bones of neonatal rats (Sprague-Dawley, 4-6 days old) in Medium 199/Hanks. 100 uL of the suspension is then plated onto each slice and incubated 30 minutes to allow osteoclasts to adhere. The slices are rinsed to remove non-adherent cells and incubated 24 h in Medium 199 containing Earle's salts, 10 mM HEPES and 0.7 g/L NaHCO3, which equilibrates at pH 6.9 in a 5% CO2 atmosphere. At this pH the adherent osteoclasts excavate an adequate number of resorption pits for assay purposes. Slices are fixed in 2.5% glutaraldehyde and osteoclasts counted following tartrate-resistant acid phosphatase staining. […] All cells are stripped from the slice by sonication on 0.25M NH4OH and the resorption pits formed by the osteoclasts during the experiment stained with toluidine blue. Resorption pits are quantified by manually counting.
The experiments are conducted according to a block design with osteoclasts from each animal exposed to each treatment. Three replicate slices are used per treatment per animal, such that a total of 96 slices are examined for an experiment involving four animals and eight treatments (including control). Several parameters are recorded on a “per slice” basis: number of pits, number of osteoclasts, number of pits per osteoclast, number of fibroblast-like bone cells. SAS or JMP statistical software is used for statistical analysis. […] IC50s are calculated for active compounds using dose-response curves.
Reference Compound: Rat calcitonin.
Osteoclasts are responsible for the bone loss that occurs in the onset of osteoporosis and anti-resorptive drugs directed against the osteoclast are a requirement for patients losing bone.

αVβ3 integrin = target: T2, αVβ3 integrin (Homo sapiens, UniProt P05106+P06756); assay: Osteopontin-αVβ3 Cell Attachment Assay; type: cell-based
T2 construct: αVβ3-expressing cell lines are maintained by standard tissue culture techniques; endogenous in cells; host or cells: αVβ3-expressing cell lines
T2 sequence (P06756 31-889 limits assumed): as the sequence (P06756 31-889 limits assumed) above
T2 sequence (P06756 891-1048 partner limits assumed): as the sequence (P06756 891-1048 partner limits assumed) above
T2 sequence (P05106 27-788): as the sequence (P05106 27-788) above
Procedure: Osteopontin-αVβ3 Cell Attachment Assay The purpose of this assay is to measure the effect of various compounds on the RGD-dependent attachment of cells to osteopontin mediated by the αVβ3 integrin. […] Following the blocking period, wells are aspirated and washed once with D-PBS. Cell Suspension αVβ3-expressing cell lines are maintained by standard tissue culture techniques. […] The cells are pelleted by low-speed centrifugation and washed three times with 0.5 mg/mL trypsin inhibitor in D-PBS (Sigma). The final cell pellet is resuspended in cell suspension media at a concentration of 10^6 cells/mL. Attachment Assay Incubation: […] of diluted test compound is added to osteopontin-coated wells (in triplicate) followed by […] of cell suspension; background cell attachment is determined in uncoated wells. The plate is incubated at 25° C. in a humidified air atmosphere for 1.5 hours. Following the incubation period, the wells are gently aspirated and washed once with D-PBS. Cell Number Detection: The number of cells attached is determined by an MTT dye conversion assay (Promega) according to the manufacturer's instructions. Briefly, MTT dye is diluted in cell suspension media (15:85) and […] is added to each well. […] The assay plates are covered and incubated at 37° C. in a humidified air atmosphere overnight. […] Reference Compounds Various […]

Compound	IC50 [1] [µM]	further results
O=C(NCCOc1ccc(C(=O)NC[C@H](NC(=O)OCc2ccccc2)C(=O)O)c(O)c1)NCc1ccccc1Cl [Example 267, (2S)-2-{[(benzyloxy)carbonyl]amino}-3-({4-[2-({[(2-chlorobenzyl)amino]carbonyl}-amino)ethoxy]-2-hydroxybenzoyl}amino)propanoic acid]	10.2	–
Cc1ccccc1CNC(=O)NCCOc1ccc(C(=O)NC[C@H](NC(=O)OCc2ccccc2)C(=O)O)c(O)c1 [Example 268]	33.4	–
O=C(NCCOc1ccc(C(=O)NC[C@H](NC(=O)OCc2ccccc2)C(=O)O)c(O)c1)NCc1ccccc1Br [Example 269, (2S)-2-{[(benzyloxy)carbonyl]amino}-3-({4-[2-({[(2-bromobenzyl)amino]-carbonyl}-amino)ethoxy]-2-hydroxybenzoyl}amino)propanoic acid]	21.2	–
O=C(NCCOc1ccc(C(=O)NC[C@H](NC(=O)OCc2ccccc2)C(=O)O)c(O)c1)NCc1ccc(Cl)cc1Cl [Example 270, (2S)-2-{[(benzyloxy)carbonyl]amino}-3-({4-[2-({[(2,4-dichlorobenzyl)amino]-carbonyl}amino)ethoxy]-2-hydroxybenzoyl}amino)propanoic acid]	21.7	–
Nc1ccccc1CNC(=O)NCCOc1ccc(C(=O)NC[C@H](NC(=O)OCc2ccccc2)C(=O)O)c(O)c1 [Example 271, (2S)-3-({4-[2-({[(2-aminobenzyl)amino]carbonyl}amino)ethoxy]-2-hydroxybenzoyl}-amino)-2-{[(benzyloxy)carbonyl]amino}propanoic acid]	13.7	–
O=C(NCCOc1ccc(C(=O)NC[C@H](NC(=O)OCc2ccccc2)C(=O)O)c(O)c1)NCc1ccccn1 [Example 272, (2S)-2-{[(benzyloxy)carbonyl]amino}-3-({2-hydroxy-4-[2-({[(pyridin-2-ylmethyl)-amino]carbonyl}amino)ethoxy]benzoyl}amino)propanoic acid]	10.6	–
CCOC(=O)[C@H](CNC(=O)c1ccc(OCCNc2ncccn2)cc1O)NS(=O)(=O)c1ccccc1 [Example 273]	–	TPTX (% inhibition) ([2]; s.c.): 57%
O=C(N[C@@H](CNC(=O)c1ccc(OCCNC2=NCCCN2)cc1O)C(=O)O)OCc1ccccc1 [Example 278, 2(S)-Benzyloxycarbonylamino-3-[2-hydroxy-4-[2-(3,4,5,6-tetrahydro-pyrimidin-2-ylamino)ethoxy]benzoylamino]propionic acid hydrochloride]	–	IC50 (osteoclasts; Osteoclast Pitting Assay, neonatal rat osteoclasts on bovine cortical bone slices, read-out: IC50 (μM) Bone Pitting): 0.5 µM; IC50 (αVβ3 integrin): 0.02 µM
CCOC(=O)CC(NC(=O)c1ccc(OCCNC(=N)N)cc1O)c1ccccc1 (centres unmarked) [Example 279, 3-[4-(2-Guanidinoethoxy)-2-hydroxy-benzoylamino]-3-phenylpropanoic acid ethyl ester hydrochloride]	0.013	inhibition in vivo at 100 mg/kg [2]: 59%
CCOC(=O)CC(NC(=O)c1ccc(OCCNc2ncccn2)cc1O)c1cccnc1 (centres unmarked) [Example 281, 3-[2-Hydroxy-4-[2-(pyrimidin-2ylamino)ethoxy]-benzoylamino]-3-pyridine-3-ylpropionic acid ethyl ester]	–	VnR (IC50μM) [1]: inactive
O=C(O)CC(NC(=O)c1ccc(OCCNC2=NCCCN2)cc1O)c1cccnc1 (centres unmarked) [Example 282, 3-[2-Hydroxy-4-[2-(3,4,5,6-tetrahydropyrimidine-2ylamino)-ethoxy]benzoylamino]-3-pyridin-3-ylpropionic acid]	–	VnR, % @ 100 ([1]; @ 100): −42% @ 100; IC50 (αVβ3 integrin): 33 µM
CCOC(=O)CC(NC(=O)c1ccc(OCCNC2=NCCCN2)cc1O)c1cccnc1 (centres unmarked) [Example 283, 3-[2-Hydroxy-4-[2-(3,4,5,6-tetrahydropyrimidin-2-ylamino)ethoxy]benzoylamino]-3-pyridin-3-ylpropionic acid ethyl ester dihydrocloride]	123	–
N=C(N)NCCOc1ccc(C(=O)NC(CC(=O)O)c2cccnc2)c(O)c1 (centres unmarked) [Example 285, 3-[4-(2-Guanidino-ethoxy)-2-hydroxybenzoyl-amino]-3-pyridin-3-yl-propanoic acid]	5	IC50 (αVβ3 integrin): 56 µM
O=C(O)CC(NC(=O)c1ccc(OCCNc2ncccn2)cc1O)c1cccnc1 (centres unmarked) [Example 286, 3-[2-hydroxy-4-[2-(pyrimidin-2-ylamino)-ethoxy]benzoylamino]-3-pyridin-3-yl-propanoic acid]	2.8	IC50 (αVβ3 integrin): 86 µM
O=C(O)CC(NC(=O)c1ccc(OCCNc2ncccn2)cc1O)c1ccccc1 (centres unmarked) [Example 287, 3-[2-hydroxy-4-[2-(pyrimidin-2-ylamino)-ethoxy]benzoyl-amino]-3-phenyl-propanoic acid hydrochloride]	0.26	–
CCOC(=O)CC(NC(=O)c1ccc(OCCNc2ncccn2)cc1O)c1ccccc1 (centres unmarked) [Example 288, 3-[2-hydroxy-4-[2-(pyrimidin-2-ylamino)-ethoxy]benzoyl-amino]-3-phenyl-propanoic acid ethyl ester]	0.003	IC50 (osteoclasts; Rattus norvegicus, Osteoclast, read-out: bone pitting IC50): 0.44 µM
O=C(O)CC(NC(=O)c1ccc(OCCNC2=NCCCN2)cc1O)c1ccccc1 (centres unmarked) [Example 291, 3-[2-hydroxy-4-[2-(3,4,5,6-tetrahydropyrimidin-2-ylamino)ethoxy]-benzoylamino]-3-phenyl-propanoic acid]	0.44	inhibition in vivo at 100 mg/kg [2]: 41%; IC50 (αVβ3 integrin): 28 µM
CCOC(=O)CC(NC(=O)c1ccc(OCCNC2=NCCCN2)cc1O)c1ccccc1 (centres unmarked) [Example 292, 3-[2-hydroxy-4-[2-(3,4,5,6-tetrahydropyrimidin-2-ylamino)ethoxy]-benzoylamino]-3-phenyl-propanoic acid ethyl ester hydrochloride]	0.115	inhibition in vivo at 100 mg/kg [2]: 111%
NC(CNC(=O)c1ccc(OCCNC2=NCCCN2)cc1O)C(=O)O (centres unmarked) [Example 295, 2-Amino-3-[2-hydroxy-4-[2-(3,4,5,6-tetra-hydropyrimidin-2-ylamino)ethoxy]-benzoylamino]propionic acid dihydrochloride]	0.0018	–
(2S)-3-({2-hydroxy-4-[2-(pyrimidin-2-ylamino)ethoxy]benzoyl3 amino)-2-{[(4-methoxyanilino)carbonyl]amino}propanoic acid [Example 74]	> 1	–
(2S)-3-({2-hydroxy-4-[2-(pyrimidin-2-ylamino)ethoxy]benzoyl}amino)-2-{[1-naphthylamino)carbonyl]amino}propanoic acid [Example 91]	> 1	–
Calcitonin: anti-resorptive used in the clinic; rat calcitonin is the reference compound of the pitting assay (CGNLSTCMLGTYTQDLNKFHTFPQTSIGVGAP; ends and bridges not checked; cysteine pairing not given here; UniProt P01257 85-116, looked up) [reference compound]	–	osteoclast inhibitory activity (osteoclasts): significant osteoclast inhibitory activity
GRGESP [reference compound]	–	IC50 (μM) ([1]; reference peptides, 125I-Echistatin 50 pM, 512P5 (αVβ3-overexpressing) cell membranes): inactive at 100 μM
